Data set [1] has as its system carrageenan foot edema. Description: Rat carrageenan foot pad edema test. In kind it is in vivo, Male Sprague-Dawley rats. More on the design: inhibition in vivo: dose or concentration left out as unconfirmed. The conditions noted are these: po, 3 h, dosed orally, foot volume three hours after carrageenan, read-out: RAT PAW EDEMA % Inhibition; for inhibition in vivo at 10 mg/kg: @ 10 mpk (values marked *). As for the experimental part: Rat Carrageenan Foot Pad Edema Test
Male Sprague-Dawley rats were selected in each group so that the average body weight was as close as possible. Rats were fasted with free access to water for over sixteen hours prior to the test. The rats were dosed orally (1 mL) with compounds suspended in vehicle containing 0.5% methylcellulose and 0.025% surfactant, or with vehicle alone. One hour later a subplantar injection of 0.1 mL of 1% solution of carrageenan/sterile 0.9% saline was administered and the volume of the injected foot was measured with a displacement plethysmometer connected to a pressure transducer with a digital indicator. Three hours after the injection of the carrageenan, the volume of the foot was again measured. The average foot swelling in a group of drug-treated animals was compared with that of a group of placebo-treated animals and the percentage inhibition of edema was determined (Otterness and Bliven, Laboratory Models for Testing NSAIDs, in Non-steroidal Anti-Inflammatory Drugs, (J. Lombardino, ed. 1985)).
On the technique in general: Carrageenan injected into the paw causes an acute inflammation.

A short description of data set [2]: Analgesia (Table I). It counts as in vivo. Further details: inhibition in vivo: dose or concentration left out as unconfirmed. To be noted: read-out: ANALGESIA % Inhibition; for inhibition in vivo at 10 mg/kg: @ 10 mpk (values marked *).
The target in data set [3] is T1, COX-2 (UniProt P35354).
T1 sequence (P35354 1-604): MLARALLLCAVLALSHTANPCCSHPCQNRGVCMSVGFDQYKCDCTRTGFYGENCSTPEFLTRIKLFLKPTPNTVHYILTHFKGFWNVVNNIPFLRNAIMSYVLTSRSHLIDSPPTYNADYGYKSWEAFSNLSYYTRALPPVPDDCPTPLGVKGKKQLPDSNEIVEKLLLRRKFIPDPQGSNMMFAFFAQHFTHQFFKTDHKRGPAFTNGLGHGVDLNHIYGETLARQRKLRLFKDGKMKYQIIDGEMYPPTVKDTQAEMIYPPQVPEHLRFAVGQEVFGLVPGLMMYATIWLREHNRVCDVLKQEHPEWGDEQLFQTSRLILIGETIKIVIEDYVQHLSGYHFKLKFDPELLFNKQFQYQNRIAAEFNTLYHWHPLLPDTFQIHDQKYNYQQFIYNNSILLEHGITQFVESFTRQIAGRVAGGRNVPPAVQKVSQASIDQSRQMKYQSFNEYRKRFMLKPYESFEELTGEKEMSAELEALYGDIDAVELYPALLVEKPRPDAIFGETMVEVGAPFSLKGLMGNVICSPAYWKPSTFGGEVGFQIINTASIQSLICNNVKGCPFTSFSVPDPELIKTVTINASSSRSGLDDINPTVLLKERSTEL
Description: Fast assay for COX-2 activity (PGE2 ELISA). It counts as biochemical, human or murine. To be noted: fast assay: 10 min pre-incubation at 25° C., reaction stopped after two minutes, pH 7.5. Background: In an ELISA, binding on a coated surface is turned into a signal by an enzyme label.
Description: The homogenate was centrifuged at 10,000×G for 30 minutes, and the resultant supernatant was stored at −80° C. before being assayed for COX activity.
Fast Assay for COX-1 and COX-2 Activity
COX activity was assayed as PGE2 formed/μg protein/time using an ELISA to detect the prostaglandin released. CHAPS-solubilized insect cell membranes containing the appropriate COX enzyme were incubated in a potassium phosphate buffer (0.05 M Potassium phosphate, pH 7.5, 2 μM phenol,1 μM heme, 300 μM epinephrine) with the addition of 20 μl of 100 μM arachidonic acid (10 μM). […] The PGE2 formed was measured by standard ELISA technology (Cayman Chemical).

In data set [4] the target is T1, COX-2. Nature of the data set: Assay for COX-2 activity (PGE2 ELISA). To be noted: read-out: COX-2 IC50; 10–20 minutes pre-incubation, reaction stopped after ten minutes, pH 8.0.
Description: (§1) Recombinant baculoviruses were isolated by transfecting 4 μg of baculovirus transfer vector DNA into SF9 insect cells (2×10^8) along with 200 ng of linearized baculovirus plasmid DNA by the calcium phosphate method. […] Recombinant viruses were purified by three rounds of plaque purification and high titer (10^7–10^8 pfu/mL) stocks of virus were prepared. For large scale production, SF9 insect cells were infected in 10 liter fermentors (0.5×10^6/mL) with the recombinant baculovirus stock such that the multiplicity of infection was 0.1. […] The homogenate was centrifuged at 10,000×G for 30 minutes, and the resultant supernatant was stored at −80° C. before being assayed for COX activity.
Assay for COX-1 and COX-2 Activity
(§2) COX activity was assayed as PGE2 formed/μg protein/time using an ELISA to detect the prostaglandin released. CHAPS-solubilized insect cell membranes containing the appropriate COX enzyme were incubated in a potassium phosphate buffer (50 mM, pH 8.0) containing epinephrine, phenol, and heme with the addition of arachidonic acid (10 μM). […] The PGE2 formed was measured by standard ELISA technology (Cayman Chemical).
Data set [5] deals with COX-1 (UniProt P23219). Description: Assay for COX-1 activity (PGE2 ELISA). To be noted: read-out: COX-1 IC50; 10–20 minutes pre-incubation, reaction stopped after ten minutes, pH 8.0.
Description: as §1
Assay for COX-1 and COX-2 Activity
as §2

Data on 23 compounds can be found in US7138411B2, “Substituted benzopyran derivatives for the treatment of inflammation” (G.D. Searle & Co., priority 1997, dated 2006).

As for `CC(C)(C)c1cc2c(cc1Cl)C=C(C(=O)O)C(C(F)(F)F)O2` (stereo not shown) [Example 8, 6-Chloro-7-(1,1-dimethylethyl)-2-trifluoromethyl-2H-1-benzopyran-3-carboxylic acid], the values for the inhibition in vivo in data set [1] and in data set [2] were 43% and 36%, respectively.
As a reminder, the melting point is the temperature, or range, at which the solid turns liquid. As for `O=C(O)C1=Cc2cc(I)ccc2OC1C(F)(F)F` (stereo not shown) [Example 24, 6-Iodo-2-trifluoromethyl-2H-1-benzopyran-3-carboxylic acid], the melting point was in the range of 168 to 170 °C. For the same compound, the inhibition in vivo in data set [1] is 29%. Moreover, in data set [2], the inhibition in vivo stood at 25%.
Turning to `O=C(O)C1=Cc2cc(Cl)cc(Cl)c2OC1C(F)(F)F` (stereo not shown) [Example 32, 6,8-Dichloro-2-trifluoromethyl-2H-1-benzopyran-3-carboxylic acid], the inhibition in vivo at 10 mg/kg is 59% in data set [1] and 73% in data set [2].
`N#Cc1ccc2c(c1)C=C(C(=O)O)C(C(F)(F)F)O2` (stereo not shown) [Example 79, 6–Cyano-2-(trifluoromethyl)-2H-1-benzopyran-3-carboxylic acid]: the melting point lay in the range of 185.1 to 186.1 °C. The inhibition in vivo in data set [1] came to 45%. For the same compound, the inhibition in vivo in data set [2] is 53%.
In the case of `C#Cc1ccc2c(c1)C=C(C(=O)O)C(C(F)(F)F)O2` (stereo not shown) [Example 139, 6-(Ethynyl)-2-(trifluoromethyl)-2H-1-benzopyran-3-carboxylic acid], the melting point fell in the range of 198 to 200 °C. Also, the inhibition in vivo in data set [1] stood at 42%. The inhibition in vivo in data set [2] was 41%.
With `O=C(O)C1=Cc2cc(Cl)ccc2NC1C(F)(F)F` (stereo not shown) [Example 157, 6-Chloro-1,2-dihydro-2-(trifluoromethyl)-3-quinolinecarboxylic acid], the inhibition in vivo at 10 mg/kg is 44% in data set [1] and 36% in data set [2].
Taken in the same sequence, the figures for `O=C(O)C1=Cc2cc(Cl)cc(Cl)c2NC1C(F)(F)F` (stereo not shown) [Example 158, 6,8-Dichloro-1,2-dihydro-2-(trifluoromethyl)-3-quinolinecarboxylic acid] were 45% and 55%.
For `O=C(O)C1=Cc2cc(Br)ccc2NC1C(F)(F)F` (stereo not shown) [Example 161, 6-Bromo-1,2-dihydro-2-(trifluoromethyl)-3-quinolinecarboxylic acid], the inhibition in vivo in data set [1] amounted to 53%; in data set [2], 56%.
Take `CN1c2ccc(Cl)cc2C=C(C(=O)O)C1C(F)(F)F` (stereo not shown) [Example 165, 6-Chloro-1,2-dihydro-1-methyl-2-(trifluoromethyl)-3-quinolinecarboxylic acid]: the melting point lay in the range of 208 to 209 °C. In addition, the inhibition in vivo at 10 mg/kg in data set [1] was determined as 30%. Besides, the inhibition in vivo at 10 mg/kg in data set [2] is 33%.
For the compound `O=C(O)C1=Cc2cc(Cl)ccc2N[C@@H]1C(F)(F)F` [Example 172, (S)-6-chloro-1,2-dihydro-2-(trifluoromethyl)-3-quinolinecarboxylic acid], the inhibition in vivo in data set [1] worked out at 57%; in data set [2], 67%.
The IC50 is the concentration that inhibits the measured activity by half. Regarding `Cc1cccc(C)c1Oc1cc2c(cc1Cl)C=C(C(=O)O)C(C(F)(F)F)O2` (stereo not shown) [Example 190, 6-Chloro-7-(2,6-dimethylphenoxy)-2-(trifluoromethyl)-2H-1-benzopyran-3-carboxylic acid], the melting point was in the range of 252.7 to 258.6 °C. This compound also displayed an IC50 in data set [3] of 500 nM. For the same compound, the IC50 in data set [4] was determined as 500 nM. Further, the IC50 in data set [5] came out at 37.4 µM.
With `COc1ccc(Sc2cc3c(cc2Cl)C=C(C(=O)O)C(C(F)(F)F)O3)cc1` (stereo not shown) [Example 191, 6-Chloro-7-[(4-methoxyphenyl)thio]-2-(trifluoromethyl)-2H-1-benzopyran-3-carboxylic acid], the melting point lay in the range of 239.4 to 242.3 °C. In data set [3], this compound returned a 50% inhibitory concentration (IC50) below 100 nM. Further, the half-inhibitory concentration (IC50) in data set [4] stood at 42200 nM. The IC50 in data set [5] is above 100 µM.
Taken in the same sequence, the figures for `O=C(O)C1=Cc2cc(Cl)c(Sc3ccc(Cl)cc3)cc2OC1C(F)(F)F` (stereo not shown) [Example 192, 6-Chloro-7-[(4-chlorophenyl)thio]-2-(trifluoromethyl)-2H-1-benzopyran-3-carboxylic acid] were 251.7 to 253.3 °C, below 100 nM, 1400 nM and 12.3 µM.
Taken in the same sequence, the figures for `O=C(O)C1=Cc2cc(Cl)c([S+]([O-])c3ccc(Cl)cc3)cc2OC1C(F)(F)F` (stereo not shown) [Example 193, 6-Chloro-7-[(4-chlorophenyl)sulfinyl]-2-(trifluoromethyl)-2H-1-benzopyran-3-carboxylic acid] were 213.8 to 217.4 °C, 1200 nM, above 100000 nM and above 100 µM.
`O=C(O)C1=Cc2cc(Cl)c(Sc3ccccc3)cc2OC1C(F)(F)F` (stereo not shown) [Example 195, 6-Chloro-7-(phenylthio)-2-(trifluoromethyl)-2H-1-benzopyran-3-carboxylic acid] displayed a melting point of 271.7 to 274.4 °C. In data set [3], this compound yielded a 50% inhibitory concentration (IC50) below 100 nM. The IC50 in data set [4] is below 100 nM. Also, the IC50 in data set [5] was found to be 2.6 µM.
For `O=C(O)C1=Cc2cc(Cl)c(Oc3cccc(Cl)c3)cc2OC1C(F)(F)F` (stereo not shown) [Example 196, 6-Chloro-7-(3-chlorophenoxy)-2-(trifluoromethyl)-2H-1-benzopyran-3-carboxylic acid], the melting point is 174.1 to 176.1 °C. Besides, the half-inhibitory concentration (IC50) in data set [3] is below 100 nM. For the same compound, the half-maximal inhibitory concentration (IC50) in data set [4] was 9500 nM. In data set [5], the IC50 is 30.3 µM.
In the case of `O=C(O)C1=Cc2cc(Cl)c(Oc3ccc(Cl)cc3Cl)cc2OC1C(F)(F)F` (stereo not shown) [Example 197, 6-Chloro-7-(2,4-dichlorophenoxy)-2-(trifluoromethyl)-2H-1-benzopyran-3-carboxylic acid], the melting point is 233 to 234 °C. The half-maximal inhibitory concentration (IC50) in data set [3] was below 100 nM. The half-inhibitory concentration (IC50) in data set [4] is below 100 nM. The 50% inhibitory concentration (IC50) in data set [5] worked out at 0.4 µM.
As for `O=C(O)C1=Cc2cc(Cl)c(Oc3ccc(F)c(F)c3)cc2OC1C(F)(F)F` (stereo not shown) [Example 198, 6-Chloro-7-(3,4-difluorophenoxy)-2-(trifluoromethyl)-2H-1-benzopyran-3-carboxylic acid], the melting point lay in the range of 191.9 to 193.1 °C. For the same compound, the IC50 in data set [3] was below 100 nM. The concentration for half-maximal inhibition (IC50) in data set [4] is below 100 nM. For the same compound, the half-maximal inhibitory concentration (IC50) in data set [5] is 12.4 µM.
Consider `O=C(O)C1=Cc2cc(Cl)c(Oc3cccnc3Cl)cc2OC1C(F)(F)F` (stereo not shown) [Example 200, 6-Chloro-7-[(2-chloro-3-pyridinyl)oxy]-2-(trifluoromethyl)-2H-1-benzopyran-3-carboxylic acid], for which the melting point is 213.4 to 216.2 °C. Also, in data set [3], the concentration for half-maximal inhibition (IC50) was below 100 nM. In addition, in data set [4], the half-inhibitory concentration (IC50) is below 100 nM. Further, the concentration for half-maximal inhibition (IC50) in data set [5] is 28.5 µM.
Consider `O=C(O)C1=Cc2cc(Cl)c(Oc3cccnc3)cc2OC1C(F)(F)F` (stereo not shown) [Example 201, 6-Chloro-7-[3-pyridinyloxy]-2-(trifluoromethyl)-2H-1-benzopyran-3-carboxylic acid], for which the melting point is 237.8 to 238.8 °C. Also, the half-inhibitory concentration (IC50) in data set [3] is below 100 nM. In addition, in data set [4], the IC50 amounted to 100 nM. For the same compound, the half-inhibitory concentration (IC50) in data set [5] was 63.8 µM.
For the compound `O=C(O)C1=Cc2cc(Cl)c(OCC(F)(F)F)cc2OC1C(F)(F)F` (stereo not shown) [Example 209], the melting point fell in the range of 174.4 to 176 °C. Moreover, the midpoint of inhibition in data set [3], the IC50, lay at 200 nM. Also, in data set [4], the IC50 was above 100000 nM. Further, the IC50 in data set [5] is above 100 µM.
As to `C#Cc1ccc2c(c1)C=C(C(=O)O)C(C(F)(F)F)N2` (stereo not shown) [Example 210, 1,2-Dihydro-6-ethynyl-2-(trifluoromethyl)-3-quinolinecarboxylic acid], the melting point is 259 to 268 °C. Further, in data set [3], the IC50 came out at 1700 nM. Moreover, the IC50 in data set [4] was determined as 10000 nM. In addition, the IC50 in data set [5] was above 100 µM.
Turning to `O=C(O)C1=Cc2cc(C#Cc3ccccc3)ccc2NC1C(F)(F)F` (stereo not shown) [Example 211, 1,2-Dihydro-6-(phenylethynyl)-2-(trifluoromethyl)-3-quinolinecarboxylic acid], the melting point was 218 to 219 °C. In addition, it took 1900 nM to reach half-maximal inhibition in data set [3] (IC50). In addition, in data set [4], the concentration for half-maximal inhibition (IC50) stood at 2400 nM. The 50% inhibitory concentration (IC50) in data set [5] turned out to be 3.8 µM.
